Data on 1 compound can be found in patent US20230277508A1, “USE OF COMPOUND AS CYP2E1 INHIBITOR” (SHANGHAI LING XI BIOTECHNOLOGY DEVELOPMENT CO., LTD., priority 2020, published 2023).

Structures are written as SMILES.

In series [1] the test system is lung cancer cell line Lewis in situ transplanted tumor. Nature of the series: Mouse lung cancer model, in situ implantation of Lewis cells into lungs. The series is classed as in vivo, C57BL/6N mice. The protocol: Experimental method: A female C57 mouse lung cancer model with an in situ transplanted tumor was prepared with a lung cancer cell line Lewis at a cell amount of 2*10^4. C57BL/6N mice were divided into a control group, a model group, a positive drug group, and an SMI0 intervention group, and the modeling took 18 days (control group, n=20; model group, n=20; positive drug group (20 mg/kg), n=15; SMI0 (3.3 mg/kg), n=15; SMI0 (10 mg/kg), n=20; and SMI0 (30 mg/kg), n=20). At the end of the experiment, a body weight of mice in each group was recorded, blood was collected from the orbit, the mice were sacrificed, and lung tissues and tumor tissues were collected and weighed. The weight and appearance of the lung (color, texture, or the like of the lung) were recorded. All tumors of an animal were cumulatively arranged together to indicate the tumorigenesis of the animal, and a cumulative weight of lung tumors in each animal was determined. Some lung specimens were subjected to HE staining, and then the lung lesion and tumorigenesis of mice in each group were observed.
Experimental method: A WB method was used to detect the expression of […] cytokines TGF-β, IL-10, and IL-4, inflammation-associated signaling pathway proteins IL-6/p-STAT3 and p-ERK1/2/ERK1/2, and epithelial-mesenchymal transition (EMT)-associated proteins MMP-2 and MMP-9 in the mouse paracancerous lung tissue of each group and detect the expression of […] proteins caspase3 and Bcl-2 and an autophagy-associated protein p53 in the tumor tissue.

Series [2] deals with T1, CYP2E1 (Mus musculus, UniProt Q05421).
T1 construct: from tissue; host or cells: liver microsomes of treated model mice (calcium precipitation)
Put plainly: CYP2E1 activity (liver microsome) in mouse Lewis lung cancer in situ model. The series is classed as in vivo. The note with it: SMI0 intervention group vs model group, P<0.05. As for the experimental part: (§1) Experimental method: A calcium precipitation method was used to prepare a mouse liver microsome, and a Braford method was used to determine a protein concentration in the microsome. An incubation system was prepared with 2×PBS, a CZX solution, and the liver microsome at a final concentration of 0.5 mg/mL, and then pre-incubated at 37° C. for 5 min; NADPH was added to initiate a reaction, and a resulting mixture was incubated at 37° C. for 30 min and then placed on ice to terminate the reaction; and ethyl acetate was added to extract 6-hydroxychlorzoxazone, a resulting mixture was vortexed and centrifuged, and a resulting upper organic phase was collected and blow-dried with nitrogen. A peak area of a CZX metabolite 6-hydroxychlorzoxazone was detected by HPLC under the following conditions: methanol:water=56:44, and detection wavelength: 287 nm. A concentration A C of the metabolite 6-hydroxychlorzoxazone was calculated through substitution into a standard curve; and a reaction rate of conversion of CZX into 6-hydroxychlorzoxazone was calculated according to V(pmol/min/mg)=(ΔC*1000)/(B*T) to evaluate an enzymatic activity of CYP2E1, where B represents a protein concentration of the microsome (mg/mL) and T represents an incubation time (min). A correlation between CYP2E1 activity and lung tumor weight in the Lewis lung cancer in situ model was analyzed.
For orientation: Microsomes from liver hold many membrane-bound enzymes, among them those of drug oxidation.

Series [3] concerns A549 lung cancer cells / M2 macrophages. Nature of the series: Proliferation of A549 cells co-cultivated with M2 macrophages (conditional media, CCK8). The series is classed as cell-based, human. The conditions noted are these: SMI0 50 μmol/L during M2 induction, vs M2 macrophage co-cultivation group, P<0.05. As for the experimental part:
Experimental method: PMA was used at […] to induce the transformation of human monocytic leukemia cells THP-1 into MO macrophages, and then IL-4 and IL-13 were used at 20 ng/mL to induce the transformation of MO macrophages into M2 macrophages. A supernatant was collected to establish a co-cultivation system with an A549 lung cancer cell, thereby simulating a M2-type macrophage microenvironment of lung cancer. In the SMI0 intervention group, SMI0 (50 μmol/L) was added for intervention while interleukin was added for induction. Culture supernatants of the MO macrophages, M2 macrophages, and SMI0 intervention group were collected to prepare conditional media. […] cells/mL, then 100 μL of each of different conditional media was added to each well, and 24 h later, 10 μL of a CCK8 reagent was added to each well; and the cells were further cultivated for 2 h, and an absorbance OD value of each well was determined at 450 nm by a microplate reader. 3 replicates were set for each well, and an average was taken. The proliferation activity was calculated based on the OD value.

In series [4] the target is T1, CYP2E1. Nature of the series: CYP2E1 activity (liver microsome) in in situ transplanted mouse glioma model. The conditions noted are these: SMI0 intervention group vs model group, P<0.001. The series is classed as in vivo. The protocol:
as §1, with “and” for “and lung”, “size” for “weight”, “mouse glioma” for “Lewis lung cancer in situ”

Series [5] has as its system ovarian cancer ID8 cell line abdominal transplanted tumor. Put plainly: Mouse ovarian cancer abdominal transplanted tumor model (ID8). The series is classed as in vivo, C57/6 mouse. The conditions noted are these: SMI0 30 mg/kg ig daily, 30-day modeling. As for the experimental part: Experimental method: A female C57/6 mouse ovarian cancer abdominal transplanted tumor model was constructed with an ovarian cancer murine ID8 cell line at a cell concentration of 2.5×10^6. A model group and an SMI0 intervention group were set for the experiment. The intervention group was intragastrically administered with the SMI0 compound at 30 mg/kg every day from three days before modeling to the end of the 30-day modeling (model group, n=10 mice; and SMI0 compound (30 mg/kg) group, n=11 mice). At the end of the experiment, blood was collected from the orbit, a body weight was measured, then the mice each were sacrificed, and ovary tissues were collected. Ovary tissue specimens were subjected to HE staining, and then the ovary tissue lesion and tumorigenesis of mice in each group were observed.

Where [6] appears, read: WB, SMI0 30 mg/kg vs model group, P<0.05.

T1 sequence (Q05421 whole entry): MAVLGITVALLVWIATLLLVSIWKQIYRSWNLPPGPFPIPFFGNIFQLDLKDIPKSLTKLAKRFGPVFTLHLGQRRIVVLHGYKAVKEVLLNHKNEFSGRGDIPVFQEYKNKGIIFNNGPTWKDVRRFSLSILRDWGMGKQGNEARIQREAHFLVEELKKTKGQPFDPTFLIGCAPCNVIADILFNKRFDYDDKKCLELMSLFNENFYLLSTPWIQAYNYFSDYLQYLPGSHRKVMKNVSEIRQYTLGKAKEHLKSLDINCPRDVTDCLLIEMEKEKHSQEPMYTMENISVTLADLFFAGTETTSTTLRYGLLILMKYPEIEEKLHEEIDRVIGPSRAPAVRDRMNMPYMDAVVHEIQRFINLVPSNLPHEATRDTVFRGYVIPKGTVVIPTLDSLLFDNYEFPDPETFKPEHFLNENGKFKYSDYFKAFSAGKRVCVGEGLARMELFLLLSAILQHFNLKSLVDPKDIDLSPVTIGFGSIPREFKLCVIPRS

`CC(=O)c1scnc1C` [SMI0]: in series [1] (WB, SMI0 30 mg/kg vs model group, P<0.01), the “expression of the autophagy-associated protein p53 in the tumor tissue” value was “significantly increased”. In series [1] (setting [6]), the “expression of Bcl-2 in the tumor tissue” value is reported as “significantly reduced” and the “expression of caspase3 in the tumor tissue” value was “significantly reduced”. Further, in series [1] (WB, SMI0 intervention group vs model group, P<0.05), the “expression of proinflammatory cytokines (TGF-β and IL-10), IL-6/p-STAT3, p-ERK1/2/ERK1/2, MMP-2 and MMP-9 in the paratumoral tissue” value is given as “significantly reduced”. The “tumor proliferation inhibition rate” value in series [1] (as high as, SMI0 intervention group (3.3, 10, 30 mg/kg), 18 days, lung tumor weight) was found to be 68.3%. For the same compound, on CYP2E1 [2], the CYP2E1 activity result was “significantly reduced”. For the same compound, the “proliferation activity of A549 cells” value in series [3] is reported as “significantly weakened”. Also, the CYP2E1 activity entry at CYP2E1 [4] is “significantly reduced”. Moreover, the “inhibition rate for the ascites weight” value in series [5] is 83.78%. In series [5] (vs model group), the ascites volume entry is on record as “significantly reduced” and the “body weight of mice” value is recorded as “significantly reduced”. In series [5] (as high as), the “inhibition rate for tumor proliferation of the greater momentum” value was 58.70%.
